How the values were obtained:
[1] = in vitro; assay type: cell-based, human; details: human, differentiated hl-60 cells, 300 μmol/L, about 24 hours, PMA-differentiated HL-60 cells, LDH; no-treatment 0%, cell lysis buffer 100%; read-out: cytotoxicity (%) Evaluation compound results
Method: An HL-60 cell line (human acute promyelocytic leukemia cells) was successively cultured in RPMI 1640 containing 20% fetal bovine serum (FBS) at 37° C. in 95% atmosphere/5% CO2. Before evaluation, the cells were pre-cultured for about 72 hours in the presence of 10 nM phorbol 12-myristate 13-acetate (PMA) to induce macrophage-like differentiation.
Evaluation compounds were dissolved in DMSO to obtain 30 mmol/L solutions (or suspensions). Each DMSO solution was diluted 100-fold with RPMI 1640 containing 2% FBS (final concentration of the compound: 300 μmol/L) to obtain a treatment solution. The culture supernatant of the differentiated HL-60 cells was removed, and each treatment solution was added and cultured for about 24 hours, followed by cytotoxicity evaluation.
The activity of lactate dehydrogenase (LDH) was measured in the treatment solutions exposed to the cells for about 24 hours by using a commercial kit (Cytotoxicity LDH Assay Kit-WST, Dojindo Laboratories) and a plate reader (Tecan Infinite M1000). The obtained measurement values were used to calculate cytotoxicity (%) as comparison values for each evaluation compound-treated group, with the no-treatment group taken as 0% and the cell lysis buffer-treated group taken as 100%. The test was conducted in triplicate in three wells each, and the average values were used as adopted values.

[2] = Study for confirmation of conversion to brexpiprazole in a buffer (stability of the evaluation compounds); assay type: physicochemical; details: in buffer, average of duplicate; for Concentration of brexpiprazole formed: 60-minute reaction sample; for Concentration of evaluation compound decreased: decrease in 60-minute vs 0-minute reaction sample
Method: The conversion from the evaluation compounds to brexpiprazole in a buffer (i.e., the stability of the evaluation compounds) was evaluated.
The Example 1 compound was dissolved in acetonitrile/water (1:1, v/v) to 10 mmol/L and further diluted with acetonitrile/water (1:1, v/v) to 100 μmol/L for use.
The other Example compounds and the Reference Example 5 compound to Reference Example 7 compound were each dissolved in DMSO to 10 mmol/L and further diluted with acetonitrile to 100 μmol/L for use, except for the following compounds.
The compounds of Examples 52, 95, 96, 117, and 130 (EX 52, EX 95, EX 96, EX 117, and EX 130) were dissolved in acetonitrile/water (8:2, v/v) to 10 mmol/L and further diluted with acetonitrile to 100 μmol/L for use.
The compound of Example 97 (EX 97) was dissolved in acetonitrile/water (8:2, v/v) to 10 mmol/L and further diluted with acetonitrile/water (8:2, v/v) to 100 μmol/L for use.
The compounds of Examples 15 and 116 (EX 15 and EX 116) were dissolved in DMSO to 1 mmol/L and further diluted with acetonitrile to 100 μmol/L for use.
The reaction was conducted by preparing each reaction solution such that the final concentration of each component was as follows. The test was conducted in duplicate.
For the compounds of Examples 1 to 8, 10 to 19, 26 to 27, 37, 50, 87 to 89, 91, 116, 121, 123, 150, and 151 (EX 1 to EX 8, EX 10 to EX 19, EX 26 to EX 27, EX 37, EX 50, EX 87 to EX 89, EX 91, EX 116, EX 121, EX 123, EX 150, and EX 151), and the compounds of Reference Examples 5 to 7 (REX 5 to REX 7), the reaction solution without the evaluation compound (198 μl) was pre-incubated at 37° C. for 3 minutes, and then each of the evaluation compound solutions (2 μl) was added and stirred; thereafter, the reaction was started at 37° C. At 0 minutes or 60 minutes after the start of the reaction, the reaction was stopped by adding and stirring a reaction stop solution (1000 μl) composed of acetonitrile/isopropanol (4:1, v/v) containing internal standard substances. However, the 0-minute reaction sample (198 μl) was prepared by adding the evaluation compound (2 μl) after adding the reaction stop solution (1000 μl). The samples after stopping the reaction were used as the measurement samples. Calibration curve samples with the same composition were prepared (final concentrations of the evaluation compounds and brexpiprazole: 0.01, 0.1, and 1 μmol/L, with the proviso that for the evaluation compounds only, the 0-minute reaction samples were also used as calibration curve samples for 1 μmol/L).
For the compounds of Examples 24 to 25, 28 to 29, 32 to 36, 40 to 49, 51 to 60, 62 to 64, 66 to 77, 80 to 86, 90, 92 to 111, 113, 115, 117 to 120, 122, 124 to 130, 132 to 147, and 152 to 160 (EX 24 to EX 25, EX 28 to EX 29, EX 32 to EX 36, EX 40 to EX 49, EX 51 to EX 60, EX 62 to EX 64, EX 66 to EX 77, EX 80 to EX 86, EX 90, EX 92 to EX 111, EX 113, EX 115, EX 117 to EX 120, EX 122, EX 124 to EX 130, EX 132 to EX 147, and EX 152 to EX 160), the reaction solution without the evaluation compound (148.5 μl) was pre-incubated at 37° C. for 3 minutes, and then each of the evaluation compound solutions (1.5 μl) was added and stirred; thereafter, the reaction was started at 37° C. At 0 minutes or 60 minutes after the start of the reaction, the reaction was stopped by adding and stirring a reaction stop solution (600 μl) composed of acetonitrile/isopropanol (4:1, v/v) containing internal standard substances. However, the 0-minute reaction sample (148.5 μl) was prepared by adding the evaluation compound (1.5 μl) after adding the reaction stop solution (600 μl). The samples after stopping the reaction were used as the measurement samples. Calibration curve samples with the same composition were prepared (final concentrations of the evaluation compounds and brexpiprazole: 0.01, 0.1, and 1 μmol/L, with the proviso that for the evaluation compounds only, the 0-minute reaction samples were also used as calibration curve samples for 1 μmol/L). […]

SMILES	cytotoxicity at 24 h, 300 µM [1]	Concentration of brexpiprazole formed [2]	Concentration of evaluation compound decreased [2]
O=C(OCCCO)OCOP(=O)([O-])OC[N+]1(CCCCOc2ccc3ccc(=O)[nH]c3c2)CCN(c2cccc3sccc23)CC1 [EX 131, (4-(benzo[b]thiophen-4-yl)-1-(4-((2-oxo-1,2-dihydroquinolin-7-yl)oxy)butyl)piperazin-1-ium-1-yl)methyl ((((3-hydroxypropoxy)carbonyl)oxy)methyl) phosphate]	10%	–	–
O=C(O)CCCCCOC(=O)OCOP(=O)([O-])OC[N+]1(CCCCOc2ccc3ccc(=O)[nH]c3c2)CCN(c2cccc3sccc23)CC1 [EX 145, (4-(benzo[b]thiophen-4-yl)-1-(4-((2-oxo-1,2-dihydroquinolin-7-yl)oxy)butyl)piperazin-1-ium-1-yl)methyl (((((5-carboxypentyl)oxy)carbonyl)oxy)methyl) phosphate]	-9%	0.00 µM	0.03 µM
CCCCCCCC(=O)OC(C)OP(=O)([O-])OC[N+]1(CCCCOc2ccc3ccc(=O)[nH]c3c2)CCN(c2cccc3sccc23)CC1 (stereo not drawn) [EX 26, (4-(benzo[b]thiophen-4-yl)-1-(4-((2-oxo-1,2-dihydroquinolin-7-yl)oxy)butyl)piperazin-1-ium-1-yl)methyl (1-(octanoyloxy)ethyl) phosphate]	-5%	0.00 µM	0.05 µM
CCC(=O)OP(=O)([O-])OC[N+]1(CCCCOc2ccc3ccc(=O)[nH]c3c2)CCN(c2cccc3sccc23)CC1 [EX 148, (4-(benzothiophen-4-yl)-1-(4-((2-oxo-1H-quinolin-7-yl)oxy)butyl)piperazin-1-ium-1-yl)methyl propanoyl phosphate]	-5%	–	–
O=c1ccc2ccc(OCCCC[N+]3(COP(=O)([O-])OCCCCBr)CCN(c4cccc5sccc45)CC3)cc2[nH]1 [EX 62, (4-(benzo[b]thiophen-4-yl)-1-(4-((2-oxo-1,2-dihydroquinolin-7-yl)oxy)butyl)piperazin-1-ium-1-yl)methyl (4-bromobutyl) phosphate]	3%	0.00 µM	0.18 µM
C[C@H](NP(=O)([O-])OC[N+]1(CCCCOc2ccc3ccc(=O)[nH]c3c2)CCN(c2cccc3sccc23)CC1)C(N)=O [EX 158, (4-(benzo[b]thiophen-4-yl)-1-(4-((2-oxo-1,2-dihydroquinolin-7-yl)oxy)butyl)piperazin-1-ium-1-yl)methyl (S)-(1-amino-1-oxopropan-2-yl)phosphoramidate]	-3%	0.00 µM	0.07 µM
Cc1cccc(C(=O)OCCCCCCOP(=O)([O-])OC[N+]2(CCCCOc3ccc4ccc(=O)[nH]c4c3)CCN(c3cccc4sccc34)CC2)n1 [EX 59, (4-(benzo[b]thiophen-4-yl)-1-(4-((2-oxo-1,2-dihydroquinolin-7-yl)oxy)butyl)piperazin-1-ium-1-yl)methyl (6-((6-methylpicolinoyl)oxy)hexyl) phosphate]	1%	0.00 µM	0.05 µM
O=C(O)CCOP(=O)([O-])OC[N+]1(CCCCOc2ccc3ccc(=O)[nH]c3c2)CCN(c2cccc3sccc23)CC1 [EX 112, (4-(benzo[b]thiophen-4-yl)-1-(4-((2-oxo-1,2-dihydroquinolin-7-yl)oxy)butyl)piperazin-1-ium-1-yl)methyl (2-carboxyethyl) phosphate]	-7%	–	–
CC(C)=CCC/C(C)=C/COP(=O)([O-])OC[N+]1(CCCCOc2ccc3ccc(=O)[nH]c3c2)CCN(c2cccc3sccc23)CC1 [EX 39, (E)-(4-(benzo[b]thiophen-4-yl)-1-(4-((2-oxo-1,2-dihydroquinolin-7-yl)oxy)butyl)piperazin-1-ium-1-yl)methyl (3,7-dimethylocta-2,6-dien-1-yl) phosphate]	2%	–	–
O=C(OC[N+]1(CCCCOc2ccc3ccc(=O)[nH]c3c2)CCN(c2cccc3sccc23)CC1)N1CCCCC1 [REX 4, 4-(benzo[b]thiophen-4-yl)-1-(4-((2-oxo-1,2-dihydroquinolin-7-yl)oxy)butyl)-1-(((piperidine-1-carbonyl)oxy)methyl)piperazin-1-ium iodide, reference compound]	83%	–	–
COCC(=O)OCOP(=O)([O-])OC[N+]1(CCCCOc2ccc3ccc(=O)[nH]c3c2)CCN(c2cccc3sccc23)CC1 [EX 30, (4-(benzo[b]thiophen-4-yl)-1-(4-((2-oxo-1,2-dihydroquinolin-7-yl)oxy)butyl)piperazin-1-ium-1-yl)methyl ((2-methoxyacetoxy)methyl) phosphate]	14%	–	–
CCOC(=O)CCCCCOP(=O)([O-])OC[N+]1(CCCCOc2ccc3ccc(=O)[nH]c3c2)CCN(c2cccc3sccc23)CC1 [EX 61, (4-(benzo[b]thiophen-4-yl)-1-(4-((2-oxo-1,2-dihydroquinolin-7-yl)oxy)butyl)piperazin-1-ium-1-yl)methyl (6-ethoxy-6-oxohexyl) phosphate]	5%	–	–
CC(C)=CCC/C(C)=C\COP(=O)([O-])OC[N+]1(CCCCOc2ccc3ccc(=O)[nH]c3c2)CCN(c2cccc3sccc23)CC1 [EX 38, (Z)-(4-(benzo[b]thiophen-4-yl)-1-(4-((2-oxo-1,2-dihydroquinolin-7-yl)oxy)butyl)piperazin-1-ium-1-yl)methyl (3,7-dimethylocta-2,6-dien-1-yl) phosphate]	0%	–	–
CCOCC(=O)OCOP(=O)([O-])OC[N+]1(CCCCOc2ccc3ccc(=O)[nH]c3c2)CCN(c2cccc3sccc23)CC1 [EX 31, (4-(benzo[b]thiophen-4-yl)-1-(4-((2-oxo-1,2-dihydroquinolin-7-yl)oxy)butyl)piperazin-1-ium-1-yl)methyl ((2-ethoxyacetoxy)methyl) phosphate]	-8%	–	–
